Non-standard residues stand in square brackets, D forms with d. *: point of attachment. Biotin = O=C1N[C@H]2[C@H](CS[C@H]2CCCCC(=O)*)N1; Cit = NC(=O)NCCC[C@H](N)C(=O)O
System: IgG ACPAs
Assay: ACPA ELISA with anti-human IgG secondary antibody
Assay type: binding
Settings: Example 7, FIGS. 20-27
Description: The synthetic citrullnated peptides set forth in Example 6, which were designed from synovial proteins, were synthesized and evaluated for their ability to diagnose and/or prognose RA. […] The peptides were then tested for IgG ACPA dose-response in samples of synovial fluid taken from both healthy patients and patients with RA.

Row | Substance | IgG ACPA positive response (strong/moderate)
1 | H2B-2: synthetic citrullinated peptide derived from histone (H2B), Table 8 (Biotin-SFVNDIFE[Cit]IAGEAS[Cit]LAHYNKRSTITS[Cit]EG-NH2; SMILES CC[C@H](C)[C@H](NC(=O)[C@H](CCCNC(N)=O)NC(=O)[C@H](CCC(=O)O)NC(=O)[C@H](Cc1ccccc1)NC(=O)[C@@H](NC(=O)[C@H](CC(=O)O)NC(=O)[C@H](CC(N)=O)NC(=O)[C@@H](NC(=O)[C@H](Cc1ccccc1)NC(=O)[C@H](CO)NC(=O)CCCC[C@@H]1SC[C@@H]2NC(=O)N[C@@H]21)C(C)C)[C@@H](C)CC)C(=O)N[C@@H](C)C(=O)NCC(=O)N[C@@H](CCC(=O)O)C(=O)N[C@@H](C)C(=O)N[C@@H](CO)C(=O)N[C@@H](CCCNC(N)=O)C(=O)N[C@@H](CC(C)C)C(=O)N[C@@H](C)C(=O)N[C@@H](Cc1c[nH]cn1)C(=O)N[C@@H](Cc1ccc(O)cc1)C(=O)N[C@@H](CC(N)=O)C(=O)N[C@@H](CCCCN)C(=O)N[C@@H](CCCNC(=N)N)C(=O)N[C@@H](CO)C(=O)N[C@H](C(=O)N[C@H](C(=O)N[C@H](C(=O)N[C@@H](CO)C(=O)N[C@@H](CCCNC(N)=O)C(=O)N[C@@H](CCC(=O)O)C(=O)NCC(N)=O)[C@@H](C)O)[C@@H](C)CC)[C@@H](C)O) | moderate
2 | FBNT-6: synthetic citrullinated peptide derived from fibronectin, Table 8 (Biotin-RIAP[Cit]ATITGPRATITGY[Cit]YRI[Cit]HHPEHG-NH2; SMILES CC[C@H](C)[C@H](NC(=O)[C@H](CCCNC(=N)N)NC(=O)CCCC[C@@H]1SC[C@@H]2NC(=O)N[C@@H]21)C(=O)N[C@@H](C)C(=O)N1CCC[C@H]1C(=O)N[C@@H](CCCNC(N)=O)C(=O)N[C@@H](C)C(=O)N[C@H](C(=O)N[C@H](C(=O)N[C@H](C(=O)NCC(=O)N1CCC[C@H]1C(=O)N[C@@H](CCCNC(=N)N)C(=O)N[C@@H](C)C(=O)N[C@H](C(=O)N[C@H](C(=O)N[C@H](C(=O)NCC(=O)N[C@@H](Cc1ccc(O)cc1)C(=O)N[C@@H](CCCNC(N)=O)C(=O)N[C@@H](Cc1ccc(O)cc1)C(=O)N[C@@H](CCCNC(=N)N)C(=O)N[C@H](C(=O)N[C@@H](CCCNC(N)=O)C(=O)N[C@@H](Cc1c[nH]cn1)C(=O)N[C@@H](Cc1c[nH]cn1)C(=O)N1CCC[C@H]1C(=O)N[C@@H](CCC(=O)O)C(=O)N[C@@H](Cc1c[nH]cn1)C(=O)NCC(N)=O)[C@@H](C)CC)[C@@H](C)O)[C@@H](C)CC)[C@@H](C)O)[C@@H](C)O)[C@@H](C)CC)[C@@H](C)O) | strong
3 | MLBS-1: synthetic citrullinated peptide derived from myeloblastin, Table 8 (Biotin-HS[Cit]PYMASLQM[Cit]GNPGSH-NH2; SMILES CSCC[C@H](NC(=O)[C@H](Cc1ccc(O)cc1)NC(=O)[C@@H]1CCCN1C(=O)[C@H](CCCNC(N)=O)NC(=O)[C@H](CO)NC(=O)[C@H](Cc1c[nH]cn1)NC(=O)CCCC[C@@H]1SC[C@@H]2NC(=O)N[C@@H]21)C(=O)N[C@@H](C)C(=O)N[C@@H](CO)C(=O)N[C@@H](CC(C)C)C(=O)N[C@@H](CCC(N)=O)C(=O)N[C@@H](CCSC)C(=O)N[C@@H](CCCNC(N)=O)C(=O)NCC(=O)N[C@@H](CC(N)=O)C(=O)N1CCC[C@H]1C(=O)NCC(=O)N[C@@H](CO)C(=O)N[C@@H](Cc1c[nH]cn1)C(N)=O) | moderate
4 | FIB-G1: synthetic citrullinated peptide derived from fibrin (gamma-chain), Table 8 (Biotin-GYVAT[Cit]DNSSILDE[Cit]FGSRILTHDSSI[Cit]YR-NH2; SMILES CC[C@H](C)[C@H](NC(=O)[C@H](CO)NC(=O)[C@H](CO)NC(=O)[C@H](CC(=O)O)NC(=O)[C@H](Cc1c[nH]cn1)NC(=O)[C@@H](NC(=O)[C@H](CC(C)C)NC(=O)[C@@H](NC(=O)[C@H](CCCNC(=N)N)NC(=O)[C@H](CO)NC(=O)CNC(=O)[C@H](Cc1ccccc1)NC(=O)[C@H](CCCNC(N)=O)NC(=O)[C@H](CCC(=O)O)NC(=O)[C@H](CC(=O)O)NC(=O)[C@H](CC(C)C)NC(=O)[C@@H](NC(=O)[C@H](CO)NC(=O)[C@H](CO)NC(=O)[C@H](CC(N)=O)NC(=O)[C@H](CC(=O)O)NC(=O)[C@H](CCCNC(N)=O)NC(=O)[C@@H](NC(=O)[C@H](C)NC(=O)[C@@H](NC(=O)[C@H](Cc1ccc(O)cc1)NC(=O)CNC(=O)CCCC[C@@H]1SC[C@@H]2NC(=O)N[C@@H]21)C(C)C)[C@@H](C)O)[C@@H](C)CC)[C@@H](C)CC)[C@@H](C)O)C(=O)N[C@@H](CCCNC(N)=O)C(=O)N[C@@H](Cc1ccc(O)cc1)C(=O)N[C@@H](CCCNC(=N)N)C(N)=O) | strong
5 | T9α1-1: synthetic citrullinated peptide derived from collagen (Coll.T9α1), Table 8 (Biotin-KRRP[Cit]FPVNSFQVDKAAS[Cit]AIQRVVGSRAIQ[Cit]VVGSA-NH2; SMILES CC[C@H](C)[C@H](NC(=O)[C@H](C)NC(=O)[C@H](CCCNC(=N)N)NC(=O)[C@H](CO)NC(=O)CNC(=O)[C@@H](NC(=O)[C@@H](NC(=O)[C@H](CCCNC(=N)N)NC(=O)[C@H](CCC(N)=O)NC(=O)[C@@H](NC(=O)[C@H](C)NC(=O)[C@H](CCCNC(N)=O)NC(=O)[C@H](CO)NC(=O)[C@H](C)NC(=O)[C@H](C)NC(=O)[C@H](CCCCN)NC(=O)[C@H](CC(=O)O)NC(=O)[C@@H](NC(=O)[C@H](CCC(N)=O)NC(=O)[C@H](Cc1ccccc1)NC(=O)[C@H](CO)NC(=O)[C@H](CC(N)=O)NC(=O)[C@@H](NC(=O)[C@@H]1CCCN1C(=O)[C@H](Cc1ccccc1)NC(=O)[C@H](CCCNC(N)=O)NC(=O)[C@@H]1CCCN1C(=O)[C@H](CCCNC(=N)N)NC(=O)[C@H](CCCNC(=N)N)NC(=O)[C@H](CCCCN)NC(=O)CCCC[C@@H]1SC[C@@H]2NC(=O)N[C@@H]21)C(C)C)C(C)C)[C@@H](C)CC)C(C)C)C(C)C)C(=O)N[C@@H](CCC(N)=O)C(=O)N[C@@H](CCCNC(N)=O)C(=O)N[C@H](C(=O)N[C@H](C(=O)NCC(=O)N[C@@H](CO)C(=O)N[C@@H](C)C(N)=O)C(C)C)C(C)C) | moderate
6 | T11α2-4: synthetic citrullinated peptide derived from collagen (Coll.T11α2), Table 8 (Biotin-GH[Cit]AQRSPQQQPS[Cit]LHRPQNQE-NH2; SMILES CC(C)C[C@H](NC(=O)[C@H](CCCNC(N)=O)NC(=O)[C@H](CO)NC(=O)[C@@H]1CCCN1C(=O)[C@H](CCC(N)=O)NC(=O)[C@H](CCC(N)=O)NC(=O)[C@H](CCC(N)=O)NC(=O)[C@@H]1CCCN1C(=O)[C@H](CO)NC(=O)[C@H](CCCNC(=N)N)NC(=O)[C@H](CCC(N)=O)NC(=O)[C@H](C)NC(=O)[C@H](CCCNC(N)=O)NC(=O)[C@H](Cc1c[nH]cn1)NC(=O)CNC(=O)CCCC[C@@H]1SC[C@@H]2NC(=O)N[C@@H]21)C(=O)N[C@@H](Cc1c[nH]cn1)C(=O)N[C@@H](CCCNC(=N)N)C(=O)N1CCC[C@H]1C(=O)N[C@@H](CCC(N)=O)C(=O)N[C@@H](CC(N)=O)C(=O)N[C@@H](CCC(N)=O)C(=O)N[C@@H](CCC(=O)O)C(N)=O) | moderate
7 | FBNT-10: synthetic citrullinated peptide derived from fibronectin, Table 8 (Biotin-GGFR[Cit]TTPPTTF[Cit]RTTPPTTAR-NH2; SMILES C[C@H](NC(=O)[C@@H](NC(=O)[C@@H](NC(=O)[C@@H]1CCCN1C(=O)[C@@H]1CCCN1C(=O)[C@@H](NC(=O)[C@@H](NC(=O)[C@H](CCCNC(=N)N)NC(=O)[C@H](CCCNC(N)=O)NC(=O)[C@H](Cc1ccccc1)NC(=O)[C@@H](NC(=O)[C@@H](NC(=O)[C@@H]1CCCN1C(=O)[C@@H]1CCCN1C(=O)[C@@H](NC(=O)[C@@H](NC(=O)[C@H](CCCNC(N)=O)NC(=O)[C@H](CCCNC(=N)N)NC(=O)[C@H](Cc1ccccc1)NC(=O)CNC(=O)CNC(=O)CCCC[C@@H]1SC[C@@H]2NC(=O)N[C@@H]21)[C@@H](C)O)[C@@H](C)O)[C@@H](C)O)[C@@H](C)O)[C@@H](C)O)[C@@H](C)O)[C@@H](C)O)[C@@H](C)O)C(=O)N[C@@H](CCCNC(=N)N)C(N)=O) | moderate
8 | T10α1-1: synthetic citrullinated peptide derived from collagen (Coll.T10α1), Table 8 (Biotin-KAGQ[Cit]PSLSGDKILYN[Cit]QQ[Cit]TGIFTSQIR-NH2; SMILES CC[C@H](C)[C@H](NC(=O)CNC(=O)[C@@H](NC(=O)[C@H](CCCNC(N)=O)NC(=O)[C@H](CCC(N)=O)NC(=O)[C@H](CCC(N)=O)NC(=O)[C@H](CCCNC(N)=O)NC(=O)[C@H](CC(N)=O)NC(=O)[C@H](Cc1ccc(O)cc1)NC(=O)[C@H](CC(C)C)NC(=O)[C@@H](NC(=O)[C@H](CCCCN)NC(=O)[C@H](CC(=O)O)NC(=O)CNC(=O)[C@H](CO)NC(=O)[C@H](CC(C)C)NC(=O)[C@H](CO)NC(=O)[C@@H]1CCCN1C(=O)[C@H](CCCNC(N)=O)NC(=O)[C@H](CCC(N)=O)NC(=O)CNC(=O)[C@H](C)NC(=O)[C@H](CCCCN)NC(=O)CCCC[C@@H]1SC[C@@H]2NC(=O)N[C@@H]21)[C@@H](C)CC)[C@@H](C)O)C(=O)N[C@@H](Cc1ccccc1)C(=O)N[C@H](C(=O)N[C@@H](CO)C(=O)N[C@@H](CCC(N)=O)C(=O)N[C@H](C(=O)N[C@@H](CCCNC(=N)N)C(N)=O)[C@@H](C)CC)[C@@H](C)O) | moderate
9 | T9α1-4: synthetic citrullinated peptide derived from collagen (Coll.T9α1), Table 8 (Biotin-QHIKQVSM[Cit]VIQEHFAEMAASLK[Cit]G-NH2; SMILES CC[C@H](C)[C@H](NC(=O)[C@H](Cc1c[nH]cn1)NC(=O)[C@H](CCC(N)=O)NC(=O)CCCC[C@@H]1SC[C@@H]2NC(=O)N[C@@H]21)C(=O)N[C@@H](CCCCN)C(=O)N[C@@H](CCC(N)=O)C(=O)N[C@H](C(=O)N[C@@H](CO)C(=O)N[C@@H](CCSC)C(=O)N[C@@H](CCCNC(N)=O)C(=O)N[C@H](C(=O)N[C@H](C(=O)N[C@@H](CCC(N)=O)C(=O)N[C@@H](CCC(=O)O)C(=O)N[C@@H](Cc1c[nH]cn1)C(=O)N[C@@H](Cc1ccccc1)C(=O)N[C@@H](C)C(=O)N[C@@H](CCC(=O)O)C(=O)N[C@@H](CCSC)C(=O)N[C@@H](C)C(=O)N[C@@H](C)C(=O)N[C@@H](CO)C(=O)N[C@@H](CC(C)C)C(=O)N[C@@H](CCCCN)C(=O)N[C@@H](CCCNC(N)=O)C(=O)NCC(N)=O)[C@@H](C)CC)C(C)C)C(C)C) | strong

Reference: patent publication US8519096B2, “Citrullinated peptides for diagnosing and prognosing rheumatoid arthritis” (Nestec S.A., priority 2009, dated 2013)
